Columns and labels:
SMSr-V5 = biological target: T1, SMSr-V5 (Homo sapiens, UniProt Q96LT4); assay: anti-V5 immunoprecipitate, […]:1-DG quantified by LC-MS/MS; assay type: biochemical
T1 construct: gene SAMD8
T1 sequence (Q96LT4 1-415): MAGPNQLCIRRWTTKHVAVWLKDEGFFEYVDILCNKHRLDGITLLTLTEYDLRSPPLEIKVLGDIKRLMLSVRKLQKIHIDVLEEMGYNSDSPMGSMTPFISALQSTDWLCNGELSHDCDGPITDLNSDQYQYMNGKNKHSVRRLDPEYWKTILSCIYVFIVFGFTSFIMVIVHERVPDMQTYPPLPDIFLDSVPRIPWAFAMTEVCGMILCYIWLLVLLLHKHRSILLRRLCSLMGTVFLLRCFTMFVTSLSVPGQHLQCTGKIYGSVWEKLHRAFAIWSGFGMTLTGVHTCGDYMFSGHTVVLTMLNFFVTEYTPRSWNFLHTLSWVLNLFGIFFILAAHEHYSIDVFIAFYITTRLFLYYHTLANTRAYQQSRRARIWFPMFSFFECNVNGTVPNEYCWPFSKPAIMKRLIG

[1] = substrate: CCCCCCCC/C=C\CCCCCCCC(=O)O[C@H](COC(=O)CCCCCCCCCCCCCCC)COP(=O)(O)O; assay: DDM/CHS mixed micellar assay, DG quantified by LC-MS/MS; assay type: biochemical, Homo sapiens; conditions: PAP activity, no ceramide, pH 7.4, 37 °C, 2 h, 0.1% DDM, 0.02% CHS, surface-dilution Km also printed as 3.92 ± 0.536 mol%
Description: DDM/CHS mixed micellar assay, DG quantified by LC-MS/MS on 6× His-SMSr-ΔSAMD

## CCCCCCCC/C=C\CCCCCCCC(=O)O[C@H](COC(=O)CCCCCCCCCCCCCCC)COP(=O)(O)O [16:0/18:1-PA, 1-palmitoyl-2-oleoyl (16:0/18:1)-PA]
SMSr-V5; PAP activity
  anti-V5 immunoprecipitate, 16:0/18:1-DG quantified by LC-MS/MS: The SMSr expressed in the COS-7 cells exhibited PAP and PI-PLC activities

## CCCCCCCC/C=C\CCCCCCCC(=O)O[C@H](COC(=O)CCCCCCCCCCCCCCC)COP(=O)(O)O[C@@H]1[C@H](O)[C@H](O)[C@@H](O)[C@H](O)[C@H]1O [16:0/18:1-PI, 1-palmitoyl-2-oleoyl-sn-glycero-3-phosphoinositol]
SMSr-V5; PI-PLC activity
  anti-V5 immunoprecipitate, 16:0/18:1-DG quantified by LC-MS/MS: The SMSr expressed in the COS-7 cells exhibited PAP and PI-PLC activities

B1: 6× His-SMSr-ΔSAMD (Homo sapiens) (protein)
chain: HIDVLEEMGYNSDSPMGSMTPFISALQSTDWLCNGELSHDCDGPITDLNSDQYQYMNGKNKHSVRRLDPEYWKTILSCIYVFIVFGFTSFIMVIVHERVPDMQTYPPLPDIFLDSVPRIPWAFAMTEVCGMILCYIWLLVLLLHKHRSILLRRLCSLMGTVFLLRCFTMFVTSLSVPGQHLQCTGKIYGSVWEKLHRAFAIWSGFGMTLTGVHTCGDYMFSGHTVVLTMLNFFVTEYTPRSWNFLHTLSWVLNLFGIFFILAAHEHYSIDVFIAFYITTRLFLYYHTLANTRAYQQSRRARIWFPMFSFFECNVNGTVPNEYCWPFSKPAIMKRL
[1]
  Km: 97.4 ± 13.3 µM

Source: paper PMC7988496, “Sphingomyelin synthase-related protein generates diacylglycerol via the hydrolysis of glycerophospholipids in the absence of ceramide” (The Journal of Biological Chemistry, 2021)
